Results from patent US20170037425A1, “METHOD FOR IMPROVING PLANT TRAIT” (SHANGHAI INSTITUTES FOR BIOLOGICAL SCIENCES, CHINESE …, priority 2012, published 2017).

Assays:
Brassica [1] = experiment: Leaf absorption spectrum of transgenic Brassica; type: in vivo, Brassica napus L.; conditions: different light intensities
Experimental: Reflectance and transmittance of Brassica leaves under different light intensities were measured using fiber optic spectrometer with an integrating sphere (Ocean Optics, Britain). The absorbance of the leaves under different light intensities was calculated with the equation: absorbance=100%) (without leaf)−transmittance−reflectance.

Brassica [2] = experiment: Soluble protein content of transgenic Brassica; type: in vivo, Brassica napus L.; conditions: three lines
Experimental: In this invention, three lines of mCherry transgenic Brassica were selected and the content of soluble protein was measured and compared with that in WT. The content of soluble protein in mCherry transgenic Brassica was increased.

mCherry: red fluorescent protein, amino acid sequence SEQ ID NO: 2
light energy absorbed by leaves (Brassica [1]): significantly increased
content of soluble protein vs WT (Brassica [2]): increased
